From ChEMBL document CHEMBL1201862, “PubChem BioAssay data set” (2004)
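Growth conditions: 96-well plates. Treatment: test compound, 48 hours, 5 concentrations. Analysis: linear interpolation between bracketing concentrations; unreached endpoints set to highest concentration. At the GI50, growth is halved.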 Calls of active or inactive are those of the source. Cut-off read from the data, not from the text of the source: active = GI50 up to about 1.1 µM and inactive = higher.

Columns and labels:
Assay in all cases: NCI-60 cell line screen, 48 h
786-0 = test system: 786-0
ACHN = test system: ACHN
CAKI-1 = test system: CAKI-1
DU-145 = test system: DU-145
HCC 2998 = test system: HCC 2998
HOP-92 = test system: HOP-92
IGROV-1 = test system: IGROV-1
K562 = test system: K562
NCI-H226 = test system: NCI-H226
NCI/ADR-RES = test system: NCI/ADR-RES
OVCAR-3 = test system: OVCAR-3
PC-3 = test system: PC-3
RPMI-8226 = test system: RPMI-8226
SF-268 = test system: SF-268
SK-MEL-2 = test system: SK-MEL-2
SK-OV-3 = test system: SK-OV-3
SR = test system: SR
U-251 = test system: U-251
UACC-62 = test system: UACC-62
UO-31 = test system: UO-31

Structure (SMILES)	GI50 (786-0)	GI50 (ACHN)	GI50 (CAKI-1)	GI50 (DU-145)	GI50 (HCC 2998)	GI50 (HOP-92)	GI50 (IGROV-1)	GI50 (K562)	GI50 (NCI-H226)	GI50 (NCI/ADR-RES)	GI50 (OVCAR-3)	GI50 (PC-3)	GI50 (RPMI-8226)	GI50 (SF-268)	GI50 (SK-MEL-2)	GI50 (SK-OV-3)	GI50 (SR)	GI50 (U-251)	GI50 (UACC-62)	GI50 (UO-31)
Cn1c(=O)c2c(nc3sc4c(n32)C(=O)c2c(O)ccc(O)c2C4=O)n(C)c1=O	1.75 µM (inactive)	2.94 µM (inactive)	6.04 µM (inactive)	11.2 µM (inactive)	4.11 µM (inactive)	2.66 µM (inactive)	8.02 µM (inactive)	0.64 µM (active)	53.8 µM (inactive)	2.74 µM (inactive)	4.67 µM (inactive)	5.4 µM (inactive)	0.298 µM (active)	6.04 µM (inactive)	4.42 µM (inactive)	40.7 µM (inactive)	0.598 µM (active)	14.6 µM (inactive)	4.73 µM (inactive)	3.74 µM (inactive)
COC(=O)C(COC(C)=O)NC(=O)/C=C/c1ccc(O)c(OC(C)=O)c1 (stereo not given)	55.8 µM (inactive)	74 µM (inactive)	66.2 µM (inactive)	58.6 µM (inactive)	63.4 µM (inactive)	83.4 µM (inactive)	31.6 µM (inactive)	44.6 µM (inactive)	> 100 µM (inactive)	75.3 µM (inactive)	50.6 µM (inactive)	99.1 µM (inactive)	29.6 µM (inactive)	> 100 µM (inactive)	> 100 µM (inactive)	> 100 µM (inactive)	5.81 µM (inactive)	37 µM (inactive)	> 100 µM (inactive)	49.2 µM (inactive)
O=C1C(Cl)=C(N2C(=O)CCCC2=O)C(=O)c2ccccc21	16.9 µM (inactive)	8.87 µM (inactive)	14 µM (inactive)	16.6 µM (inactive)	16.6 µM (inactive)	3.46 µM (inactive)	15.8 µM (inactive)	2.7 µM (inactive)	59.4 µM (inactive)	22.6 µM (inactive)	31.6 µM (inactive)	19.6 µM (inactive)	7.45 µM (inactive)	23.9 µM (inactive)	22.5 µM (inactive)	> 100 µM (inactive)	21.5 µM (inactive)	26 µM (inactive)	19.3 µM (inactive)	11 µM (inactive)
CC(C)(Cl)C(Br)CC/C(CBr)=C(/Cl)CCl.CC(C)(Cl)C(Br)CC/C(CBr)=C(\Cl)CCl (stereo not given)	1.66 µM (inactive)	5.64 µM (inactive)	2.41 µM (inactive)	> 10 µM (inactive)	2.86 µM (inactive)	1.9 µM (inactive)	0.782 µM (active)	1.01 µM (active)	0.975 µM (active)	2.21 µM (inactive)	2.32 µM (inactive)	2.33 µM (inactive)	1.64 µM (inactive)	2.25 µM (inactive)	2.23 µM (inactive)	3.36 µM (inactive)	0.331 µM (active)	1.73 µM (inactive)	1.5 µM (inactive)	1.95 µM (inactive)
CC(C(O)c1ccccc1)C(O)(C(F)(F)F)C(F)(F)F (stereo not given)	> 100 µM (inactive)	> 100 µM (inactive)	> 100 µM (inactive)	> 100 µM (inactive)	> 100 µM (inactive)	50.8 µM (inactive)	84.5 µM (inactive)	> 100 µM (inactive)	69.7 µM (inactive)	> 100 µM (inactive)	> 100 µM (inactive)	> 100 µM (inactive)	> 100 µM (inactive)	> 100 µM (inactive)	> 100 µM (inactive)	> 100 µM (inactive)	> 100 µM (inactive)	> 100 µM (inactive)	> 100 µM (inactive)	> 100 µM (inactive)
CN(C)Cc1cc(/N=N/c2c(Cl)cccc2Cl)ccc1O	64.1 µM (inactive)	56.4 µM (inactive)	> 100 µM (inactive)	8.49 µM (inactive)	> 100 µM (inactive)	31.9 µM (inactive)	61.4 µM (inactive)	53.5 µM (inactive)	35.2 µM (inactive)	> 100 µM (inactive)	57.4 µM (inactive)	> 100 µM (inactive)	74.8 µM (inactive)	> 100 µM (inactive)	> 100 µM (inactive)	> 100 µM (inactive)	48.9 µM (inactive)	85.7 µM (inactive)	62.2 µM (inactive)	36 µM (inactive)
O=C(/C=C1\C[C@H]2C=Nc3ccccc3C(=O)N2C1)NCCCCCNC(=O)/C=C1\C[C@H]2C=Nc3ccccc3C(=O)N2C1	1.84 µM (inactive)	1.98 µM (inactive)	2.6 µM (inactive)	13.5 µM (inactive)	18.5 µM (inactive)	4.63 µM (inactive)	11 µM (inactive)	2.88 µM (inactive)	> 51.5 µM (inactive)	24.3 µM (inactive)	4.1 µM (inactive)	13.8 µM (inactive)	4.28 µM (inactive)	6.49 µM (inactive)	15.1 µM (inactive)	16.2 µM (inactive)	1.6 µM (inactive)	3.03 µM (inactive)	14.7 µM (inactive)	1.94 µM (inactive)
COc1ccc2oc(=O)c(-c3cc4c(c(C)n3)c(=O)oc3ccc(OC)cc34)cc2c1	1.94 µM (inactive)	27.2 µM (inactive)	70.8 µM (inactive)	> 100 µM (inactive)	> 100 µM (inactive)	> 100 µM (inactive)	> 100 µM (inactive)	> 100 µM (inactive)	> 100 µM (inactive)	> 100 µM (inactive)	> 100 µM (inactive)	> 100 µM (inactive)	> 100 µM (inactive)	55.8 µM (inactive)	> 100 µM (inactive)	> 100 µM (inactive)	> 100 µM (inactive)	> 100 µM (inactive)	35.8 µM (inactive)	> 100 µM (inactive)
O=C(C[n+]1ccccc1)N/N=C(\C(=O)NC1=C(Cl)C(=O)c2ccccc2C1=O)c1c(O)c2ccc(O)cc2oc1=O	4.93 µM (inactive)	5.11 µM (inactive)	6.64 µM (inactive)	3.59 µM (inactive)	3.4 µM (inactive)	14.8 µM (inactive)	2.41 µM (inactive)	1.91 µM (inactive)	5.56 µM (inactive)	4.08 µM (inactive)	3.37 µM (inactive)	2.77 µM (inactive)	5.96 µM (inactive)	9.77 µM (inactive)	2.31 µM (inactive)	14.1 µM (inactive)	4.19 µM (inactive)	5.07 µM (inactive)	1.84 µM (inactive)	12.2 µM (inactive)
COc1c(O)cc(O)c2c(=O)cc(-c3ccccc3)oc12 [WOGONIN]	51.9 µM (inactive)	31.4 µM (inactive)	48.6 µM (inactive)	23.6 µM (inactive)	35.2 µM (inactive)	> 100 µM (inactive)	29.4 µM (inactive)	25.1 µM (inactive)	40.9 µM (inactive)	60.5 µM (inactive)	24.5 µM (inactive)	51.1 µM (inactive)	17.5 µM (inactive)	37.9 µM (inactive)	43.7 µM (inactive)	77.8 µM (inactive)	22.1 µM (inactive)	63.2 µM (inactive)	35.1 µM (inactive)	2.58 µM (inactive)
